Source: PMC12917756, “Unveiling BCL-xL-specific PROTAC efficiency and dissociation pathways using native mass spectrometry” (Chemical Science, 2026)

Biological target: T1, VHL (VCB E3 ligase complex) (Homo sapiens, UniProt P40337)
T1 construct: VCB complex (VHL·EloB·EloC); with Elongin B, Elongin C
Experiment: fluorescence polarization; ternary complex with BCL-xL by native MS
Format: binding

T1 sequence (P40337 whole entry): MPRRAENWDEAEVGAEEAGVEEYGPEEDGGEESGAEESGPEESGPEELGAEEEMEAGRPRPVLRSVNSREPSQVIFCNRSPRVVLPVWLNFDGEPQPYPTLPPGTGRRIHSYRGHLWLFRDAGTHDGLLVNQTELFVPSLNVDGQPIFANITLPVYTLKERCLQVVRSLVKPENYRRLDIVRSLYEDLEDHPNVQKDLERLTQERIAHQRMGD
T1 sequence (Q15370 whole entry partner): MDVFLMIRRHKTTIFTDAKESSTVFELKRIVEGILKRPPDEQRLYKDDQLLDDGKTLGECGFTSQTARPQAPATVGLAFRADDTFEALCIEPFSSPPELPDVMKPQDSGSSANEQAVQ
T1 sequence (Q15369 whole entry partner): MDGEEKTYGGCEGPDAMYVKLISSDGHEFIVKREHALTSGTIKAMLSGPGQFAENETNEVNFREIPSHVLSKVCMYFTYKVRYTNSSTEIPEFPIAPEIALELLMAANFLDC

## Cc1ncsc1-c1ccc([C@H](C)NC(=O)[C@@H]2C[C@@H](O)CN2C(=O)[C@@H](NC(=O)CCCCCC(=O)N2CCN(CC[C@H](CSc3ccccc3)Nc3ccc(S(=O)(=O)NC(=O)c4ccc(N5CCN(CC6=C(c7ccc(Cl)cc7)CCC(C)(C)C6)CC5)cc4)cc3S(=O)(=O)C(F)(F)F)CC2)C(C)(C)C)cc1 [DT2216]
  IC50: 10.6 µM
